Results from patent US9433571B2, “Irritation mitigating polymers and uses therefor” (Lubrizol Advanced Materials, Inc., priority 2012, dated 2016).
Like-named read-outs stand apart in the source and are kept apart here.

Experiments:
[1] = system: eye; details: cited from earlier work
[2] = system: Epiderm™ Human Tissue Model (EPI-200); experiment: MTT tissue viability assay (MTT ET-50 protocol) on EpiDerm skin cultures; details: for Viability (%): relative to H2O negative control
Protocol: Mitigation of skin irritancy induced by sodium dodecyl sulfate (SDS) surfactant dosed with the polymer of Example 11 is assessed in the Epiderm™ Human Tissue Model (EPI-200) bioassay conducted by MatTek Corporation, Ashland, Mass. The MatTek bioassay utilizes human derived epidermal keratinocytes (NHEK) which have been cultured to form a multilayered, highly differentiated model of the human epidermis.
The MTT tissue viability assay measures the NAD(P)H dependent microsomal enzyme reduction of MTT (and to a lesser extent, the succinate dehydrogenase reduction of MTT) after exposure to a treated skin culture test sample for various exposure times. The duration of exposure resulting in a 50% decrease in MTT conversion in test formulation treated EpiDerm™ cultures, relative to control cultures, is determined (ET-50).
Skin tissue culture inserts (Cat. No. EPI-200) are pre-incubated in the wells of 6-well plates containing 0.9 ml of MatTek assay medium (Cat. No. EPI-100-ASY) for 1 hr. at 37° C. in a humidified atmosphere of 5% CO2 in air. The 6-well plates containing the tissue culture inserts are removed from the incubator and the assay media is aspirated from the wells and replaced by an additional aliquot of 0.9 ml of pre-warmed (37° C.) assay media. For each exposure time wells are then dosed (2 repetitions) with 100 μl of the test formulations set forth in Table 10 (3 tissue culture wells are dosed with 100 μl ultra-pure water as a negative control for each of the test candidates). In addition, 100 μl of a positive control formulation (1% Triton X-100 in ultrapure water) is dosed into tissue culture wells (3 repetitions for each exposure time), as well as 3 repetitions of ultrapure water as a negative control. The exposure times of the test formulations, negative control and positive control are set forth below.
MTT assay plates are prepped by preparing a 24-well plate by adding 300 μl of MTT reagent solution to an appropriate number of wells to accommodate the test. The MTT reagent is utilized at a concentration of 1 mg/ml of MTT diluted in Dulbecco's Modified Eagle Medium (DMEM). The MTT/DMEM solution is centrifuged and decanted to remove any precipitate before use.
After exposure times of 60 (1 hr.), 120 (2 hrs.) and 210 (3.5 hrs.) minutes to the test solutions, the tissue cultures are removed from the incubator and thoroughly rinsed (2 times) with Dulbecco's phosphate buffered saline (DPBS) to remove the test material. The negative control is exposed for 4 hours and the positive control is exposed for time periods of 4, 6, 8, and 10 hours. Any remaining rinse media is decanted from the top of the tissue cultures. Each tissue culture insert is transferred to an appropriately labeled well of the 24-well plate containing the MTT reagent solution and placed back in the incubator. After 30 minutes reaction with the MTT reagent, the tissue cultures are removed from the incubator. Each tissue culture insert is removed from its well and the bottom is gently blotted with a lab tissue. The inserts are immersed into a labeled 24-well extraction plate containing 2 ml of isopropanol extractant solution. The 24-well extraction plate is covered with aluminum foil (to protect the samples from light) and placed into a sealable plastic bag to minimize evaporation of the extractant solution. The sealed 24-well extraction plate is set on an orbital shaker and gently shaken for 2 hours at ambient room temperature (approximately 20° C.). […]

In the case of sodium laureth-12 sulfate, the eye irritation [1] is given as “almost completely non-irritating”.

For `CCCCCCCCCCCCOS(=O)(=O)[O-].[Na+]` [sodium lauryl sulfate], the eye irritation ([1]; literature statement (Schoenberg, 1979)) is listed as “significant eye irritation”.

For Triton X-100, the “ET-50 (exposure time which reduces tissue viability to 50%)” value [2] was 5.93 h.

With `CCCCCCCCCCCCOS(=O)(=O)[O-].[Na+]` [Neat Surfactant, sodium dodecyl sulfate] the “Viability (%)” value ([2]; exposure time 1 hr) was 92.3%, the “Viability (%)” value ([2]; exposure time 2 hr) was 32.3% and the “Viability (%)” value ([2]; exposure time 3.5 hr) was 16.6%. For the same compound, the “ET-50 (exposure time which reduces tissue viability to 50%)” value ([2]; interpolated between exposure times that bracket 50% viability, 100 μl formulation per tissue) was 1.63 h.
